Measurements: PubChem BioAssay AID463226 (The Scripps Research Institute Molecular Screening Center, 2010)
Activity calls are given as the source filed them. How the calls were made is not given here.

Target: Serine/threonine-protein phosphatase PP1-beta catalytic subunit (Homo sapiens) (UniProt P62140)
Test: PubChem AID 463226
Conditions: purified PP1, 33P-phosphohistone dephosphorylation, scintillation

Sequence of Serine/threonine-protein phosphatase PP1-beta catalytic subunit (Homo sapiens) (P62140 whole entry, looked up): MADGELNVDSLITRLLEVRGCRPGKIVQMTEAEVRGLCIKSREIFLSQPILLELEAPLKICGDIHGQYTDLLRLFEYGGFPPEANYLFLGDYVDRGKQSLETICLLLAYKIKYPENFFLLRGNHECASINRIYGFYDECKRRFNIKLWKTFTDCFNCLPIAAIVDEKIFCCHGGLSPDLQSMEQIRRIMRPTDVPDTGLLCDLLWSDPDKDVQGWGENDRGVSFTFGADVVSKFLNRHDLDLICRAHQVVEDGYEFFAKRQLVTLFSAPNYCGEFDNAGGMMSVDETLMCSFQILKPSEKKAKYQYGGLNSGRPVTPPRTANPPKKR

Row | Compound | IC50
1 | O=C(O)c1n[nH]nc1-c1ccccc1 | inactive
2 | O=C(O)C1C2CCC(O2)C1C(=O)NC1CCCCC1 (configuration not stated) | 23.2 µM
